Test results as given in patent publication US4394503A, “Cephalosporin derivatives” (priority 1981, dated 1983).
Values after ≈ are worked out from the molar mass of the structure shown. Like-named read-outs stand apart in the source and are kept apart here.

Columns and labels:
[1] = tested on: Cephalothin-sensitive E. coli, Kl. pneumoniae and Pr. mirabilis (Gn-Ia); assay: In vitro antibacterial activity, two-fold agar dilution, Mueller-Hinton agar (Table 1), group Gn-Ia; assay type: cell-based; conditions: read-out: Geometric Mean of MIC
H. influenzae(AMP-S) = assay: In vitro activity against species of Streptococcus, Neisseria and Haemophilus (Table 3); assay type: cell-based; conditions: Haemophilus influenzae, read-out: Geometric Mean of MIC
N. meningitidus = assay: as above; assay type: cell-based; conditions: read-out: Geometric Mean of MIC
P. aeruginosa A20717 = assay: MIC against selected test organisms (Table 2); assay type: cell-based; conditions: Pseudomonas aeruginosa
[2] = tested on: Penicillin-resistant S. aureus (Gp-Ib); assay: In vitro antibacterial activity, two-fold agar dilution, Mueller-Hinton agar (Table 1), group Gp-Ib; assay type: cell-based
H. influenzae(AMP-R) = assay: In vitro activity against species of Streptococcus, Neisseria and Haemophilus (Table 3); assay type: cell-based; conditions: Haemophilus influenzae, read-out: Geometric Mean of MIC
B. fragilis A20928-1 = assay: MIC against selected test organisms (Table 2); assay type: cell-based; conditions: Bacteroides fragilis
B. fragilis A22695 = assay: MIC against selected test organisms (Table 2); assay type: cell-based; conditions: Bacteroides fragilis
B. fragilis A22693 = assay: MIC against selected test organisms (Table 2); assay type: cell-based; conditions: Bacteroides fragilis, A22693, read-out: Minimum Inhibitory Concentration
P. acnes A21933 = assay: MIC against selected test organisms (Table 2); assay type: cell-based; conditions: Cutibacterium acnes
E. coli A15148 = assay: MIC against selected test organisms (Table 2); assay type: cell-based; conditions: Escherichia coli
B. fragilis A22533 = assay: MIC against selected test organisms (Table 2); assay type: cell-based; conditions: Bacteroides fragilis
E. cloacae A9656 = assay: Therapeutic efficacy in experimentally infected mice (Table 5); assay type: in vivo; conditions: Enterobacter cloacae, A9656, im, 120 h; i.m., immediately after intraperitoneal challenge, 5 days observation; read-out: PD50 (median protective dose)
Description: (§1) The test compounds were administered intramuscularly immediately after the bacterial challenge.

P. aeruginosa A9843 [3] = assay: as above; assay type: in vivo; conditions: Pseudomonas aeruginosa, A9843, im, 120 h; i.m., immediately after intraperitoneal challenge, 5 days observation; read-out: PD50 (median protective dose)
Description: as §1

E. coli Juhl [4] = assay: as above; assay type: in vivo; conditions: Escherichia coli, im, 120 h; i.m., immediately after intraperitoneal challenge, 5 days observation; read-out: PD50 (median protective dose)
Description: as §1

Pr. mirabilis A9900 = assay: as above; assay type: in vivo; conditions: Proteus mirabilis, A9900, im, 120 h; i.m., immediately after intraperitoneal challenge, 5 days observation; read-out: PD50 (median protective dose)
Description: as §1

S. aureus Smith = assay: as above; assay type: in vivo; conditions: Staphylococcus aureus, im, 120 h; i.m., immediately after intraperitoneal challenge, 5 days observation; read-out: PD50 (median protective dose)
Description: as §1

S. aureus BX-1633 = assay: as above; assay type: in vivo; conditions: Staphylococcus aureus, BX1633, im, 120 h; i.m., immediately after intraperitoneal challenge, 5 days observation; read-out: PD50 (median protective dose)
Description: as §1

P. aeruginosa A9843 [5] = assay: MIC against selected test organisms (Table 2); assay type: cell-based; conditions: Pseudomonas aeruginosa
B. fragilis A21900 = assay: MIC against selected test organisms (Table 2); assay type: cell-based; conditions: Bacteroides fragilis
C. perfringens A9635 = assay: microbe, parasite or virus in culture; assay type: cell-based; conditions: Clostridium perfringens, A9635, read-out: Minimum Inhibitory Concentration
[6] = tested on: Cephalothin-resistant E. coli and Kl. pneumoniae (Gn-Ib); assay: In vitro antibacterial activity, two-fold agar dilution, Mueller-Hinton agar (Table 1), group Gn-Ib; assay type: cell-based, E. coli (3) and Kl. pneumoniae (3); conditions: Escherichia coli, read-out: Geometric Mean of MIC
C. difficile A21675 = assay: MIC against selected test organisms (Table 2); assay type: cell-based; conditions: Clostridioides difficile
N. gonorrhoeae = assay: In vitro activity against species of Streptococcus, Neisseria and Haemophilus (Table 3); assay type: cell-based; conditions: Neisseria gonorrhoeae, read-out: Geometric Mean of MIC
S. marcescens A20019 = assay: MIC against selected test organisms (Table 2); assay type: cell-based; conditions: Serratia marcescens
S. pyrogenes = assay: In vitro activity against species of Streptococcus, Neisseria and Haemophilus (Table 3); assay type: cell-based; conditions: read-out: Geometric Mean of MIC
[7] = tested on: Pr. morganii, Ent. cloacae and Ser. marcescens (Gn-II); assay: In vitro antibacterial activity, two-fold agar dilution, Mueller-Hinton agar (Table 1), group Gn-II; assay type: cell-based, Pr. morganii (1), Ent. cloacae (2) and Ser. marcescens (2); conditions: read-out: Geometric Mean of MIC
E. coli Juhl [8] = assay: MIC against selected test organisms (Table 2); assay type: cell-based; conditions: Escherichia coli, read-out: Minimum Inhibitory Concentration
K. pneumoniae A 9867 = assay: MIC against selected test organisms (Table 2); assay type: cell-based; conditions: Klebsiella pneumoniae
K. pneumoniae D11 = assay: MIC against selected test organisms (Table 2); assay type: cell-based; conditions: Klebsiella pneumoniae
P. morganii A9553 = assay: MIC against selected test organisms (Table 2); assay type: cell-based; conditions: Morganella morganii
S. pneumoniae = assay: In vitro activity against species of Streptococcus, Neisseria and Haemophilus (Table 3); assay type: cell-based; conditions: read-out: Geometric Mean of MIC

CC(C)(O/N=C(\C(=O)N[C@@H]1C(=O)N2C(C(=O)[O-])=C(C[n+]3ccccc3)CS[C@H]12)c1csc(N)n1)C(=O)O [Ceftazidime, ceftazidime, reference compound]
MIC [1]: 0.066 µg/mL (≈ 0.121 µM)
MIC (H. influenzae(AMP-S)): 0.055 µg/mL (≈ 0.101 µM)
MIC (N. meningitidus): 0.1 µg/mL (≈ 0.183 µM)
MIC (P. aeruginosa A20717; A20717, read-out: Minimum Inhibitory Concentration): 6.3 µg/mL (≈ 11.5 µM)
MIC ([2]; Staphylococcus aureus, read-out: Geometric Mean of MIC): 12.5 µg/mL (≈ 22.9 µM)
MIC (H. influenzae(AMP-R)): 0.2 µg/mL (≈ 0.366 µM)
MIC (B. fragilis A20928-1; A209281, read-out: Minimum Inhibitory Concentration): 3.1 µg/mL (≈ 5.67 µM)
MIC (B. fragilis A22695; A22695, read-out: Minimum Inhibitory Concentration): 50 µg/mL (≈ 91.5 µM)
MIC (B. fragilis A22693): 12.5 µg/mL (≈ 22.9 µM)
MIC (P. acnes A21933; A21933, read-out: Minimum Inhibitory Concentration): 1.6 µg/mL (≈ 2.93 µM)
MIC (E. coli A15148; A15148, read-out: Minimum Inhibitory Concentration): 0.4 µg/mL (≈ 0.732 µM)
MIC (B. fragilis A22533; A22533, read-out: Minimum Inhibitory Concentration): > 100 µg/mL
ED50 (E. cloacae A9656): 3.5 mg/kg
ED50 (P. aeruginosa A9843 [3]): 6 mg/kg
ED50 (E. coli Juhl [4]): 0.11 mg/kg
ED50 (Pr. mirabilis A9900): 0.9 mg/kg
ED50 (S. aureus Smith): 10 mg/kg
ED50 (S. aureus BX-1633): 15 mg/kg
MIC (P. aeruginosa A9843 [5]; A9843, read-out: Minimum Inhibitory Concentration): 1.6 µg/mL (≈ 2.93 µM)
MIC (B. fragilis A21900; A21900, read-out: Minimum Inhibitory Concentration): 25 µg/mL (≈ 45.7 µM)
MIC (C. perfringens A9635): 6.3 µg/mL (≈ 11.5 µM)
MIC [6]: 1.6 µg/mL (≈ 2.93 µM)
MIC (C. difficile A21675; A21675, read-out: Minimum Inhibitory Concentration): > 100 µg/mL
MIC (N. gonorrhoeae): 0.1 µg/mL (≈ 0.183 µM)
MIC (S. marcescens A20019; A20019, read-out: Minimum Inhibitory Concentration): 0.1 µg/mL (≈ 0.183 µM)
MIC (S. pyrogenes): 0.4 µg/mL (≈ 0.732 µM)
MIC [7]: 2.7 µg/mL (≈ 4.94 µM)
MIC (E. coli Juhl [8]): 0.1 µg/mL (≈ 0.183 µM)
MIC (K. pneumoniae A 9867; A9867, read-out: Minimum Inhibitory Concentration): 6.3 µg/mL (≈ 11.5 µM)
MIC (K. pneumoniae D11; D11, read-out: Minimum Inhibitory Concentration): 0.1 µg/mL (≈ 0.183 µM)
MIC (P. morganii A9553; A9553, read-out: Minimum Inhibitory Concentration): 3.1 µg/mL (≈ 5.67 µM)
MIC (S. pneumoniae): 0.4 µg/mL (≈ 0.732 µM)

CSc1cc[n+](CC2=C(C(=O)[O-])N3C(=O)C(NC(=O)/C(=N\OC(C)(C)C(=O)O)c4csc(N)n4)C3SC2)cc1 (stereo not shown) [Example 2, 7-[(Z)-2-(2-Aminothiazol-4-yl)-2-(2-carboxyprop-2-oxyimino)-acetamido]-3-[(4-methylthiopyridinium)methyl]-3-cephem-4-carboxylate]
MIC [1]: 0.066 µg/mL (≈ 0.111 µM)
MIC (H. influenzae(AMP-S); AMP-S, 7 strains): 0.1 µg/mL (≈ 0.169 µM)
MIC (N. meningitidus; 5 strains): 0.013 µg/mL (≈ 0.0219 µM)
MIC (P. aeruginosa A20717; A20717, Gn-III, CET-R, read-out: Minimum Inhibitory Concentration): 6.3 µg/mL (≈ 10.6 µM)
MIC ([2]; Staphylococcus aureus; read-out: Geometric Mean of MIC): 6.3 µg/mL (≈ 10.6 µM)
MIC (H. influenzae(AMP-R); AMP-R, 3 strains): 0.4 µg/mL (≈ 0.675 µM)
MIC (B. fragilis A20928-1; A209281, Anaerobe, CET-S, read-out: Minimum Inhibitory Concentration): 3.1 µg/mL (≈ 5.23 µM)
MIC (B. fragilis A22695; A22695, Anaerobe, AMP-R, read-out: Minimum Inhibitory Concentration): 50 µg/mL (≈ 84.4 µM)
MIC (B. fragilis A22693): 12.5 µg/mL (≈ 21.1 µM)
MIC (P. acnes A21933; A21933, Anaerobe, CLDM-R, read-out: Minimum Inhibitory Concentration): 1.6 µg/mL (≈ 2.7 µM)
MIC (E. coli A15148; A15148, Gn-Ib, CET-R, read-out: Minimum Inhibitory Concentration): 0.2 µg/mL (≈ 0.337 µM)
MIC (B. fragilis A22533; A22533, Anaerobe, AMP-R, read-out: Minimum Inhibitory Concentration): > 100 µg/mL
ED50 (E. cloacae A9656): 3.5 mg/kg
ED50 (P. aeruginosa A9843 [3]): 12 mg/kg
ED50 (E. coli Juhl [4]): 0.16 mg/kg
ED50 (Pr. mirabilis A9900): 0.63 mg/kg
ED50 (S. aureus Smith): 5 mg/kg
ED50 (S. aureus BX-1633): 15 mg/kg
MIC (P. aeruginosa A9843 [5]; A9843, Gn-III, CET-R, read-out: Minimum Inhibitory Concentration): 1.6 µg/mL (≈ 2.7 µM)
MIC (B. fragilis A21900; A21900, Anaerobe, CET-S, read-out: Minimum Inhibitory Concentration): 6.3 µg/mL (≈ 10.6 µM)
MIC (C. perfringens A9635): 12.5 µg/mL (≈ 21.1 µM)
MIC [6]: 0.89 µg/mL (≈ 1.5 µM)
MIC (C. difficile A21675; A21675, Anaerobe, CLDM-R, read-out: Minimum Inhibitory Concentration): > 100 µg/mL
MIC (N. gonorrhoeae; 4 strains): 0.013 µg/mL (≈ 0.0219 µM)
MIC (S. marcescens A20019; A20019, Gn-II, CET-R, read-out: Minimum Inhibitory Concentration): 0.4 µg/mL (≈ 0.675 µM)
MIC (S. pyrogenes): 0.2 µg/mL (≈ 0.337 µM)
MIC [7]: 1.5 µg/mL (≈ 2.53 µM)
MIC (E. coli Juhl [8]; Gn-Ia, CET-S): 0.1 µg/mL (≈ 0.169 µM)
MIC (K. pneumoniae A 9867; A9867, Gn-Ib, CET-R, read-out: Minimum Inhibitory Concentration): 3.1 µg/mL (≈ 5.23 µM)
MIC (K. pneumoniae D11; D11, Gn-Ia, CET-S, read-out: Minimum Inhibitory Concentration): 0.1 µg/mL (≈ 0.169 µM)
MIC (P. morganii A9553; A9553, Gn-II, CET-R, read-out: Minimum Inhibitory Concentration): 1.6 µg/mL (≈ 2.7 µM)
MIC (S. pneumoniae; 5 strains): 0.2 µg/mL (≈ 0.337 µM)
